Entries after “also recorded” stand apart in the source; their conditions may differ.
Assays:
PT and aPTT = test: Coagulation parameters (PT, aPTT) after oral administration in rabbits, denudation/stenosis model; format: in vivo, rabbit
Procedure: The protocols of the venous thrombosis and skin bleeding models in rabbits were as follows (Supplementary Figure 2). First, fasting rabbits were orally administered a solvent as a control (n = 10), a FXIa inhibitor (ONO-1600586, 5 mg/kg, n = 10; 15 mg/kg, n = 10; and 50 mg/kg, n = 11), or a FXa inhibitor (rivaroxaban, 1.5 mg/kg, 5 mg/kg, and 15 mg/kg, n = 10 each) using a Nelaton catheter of 5 mm diameter (IZUMO Health Co, Ltd) 90 minutes before thrombus formation. The thrombus formation and bleeding were performed under general anesthesia through the subcutaneous injection of a mixture of medetomidine hydrochloride (0.08 mg/kg body weight), butorphanol tartrate (0.2 mg/kg), and midazolam (0.4 mg/kg). Additional anesthesia with one-third amount of the above-mentioned mixture of drugs was administered 80 minutes after the first injection, and all surgical operations proceeded under aseptic conditions.
Blood samples were collected from the central ear arteries of rabbits before and 75 minutes and 4.5 hours after the administration of the solvent, ONO-1600586, and rivaroxaban in 3.8% sodium citrate (9:1 v/v) using 21-gauge needles. Plasma samples were centrifuged at 1500 × g for 15 minutes at room temperature. Prothrombin time (PT) and activated partial thromboplastin time (aPTT) were measured using a coagulation timer (KC-1 Delta, Tcoag Ireland Ltd) and reagents (aPTT: ACTIN, Siemens; PT: THROMBOCHECK PT+, Sysmex).

jugular vein thrombus [1] = test: Rabbit model of jugular vein thrombosis by endothelial denudation and luminal stenosis; format: in vivo; conditions: rabbits; for venous thrombus weight compared with control: 90 minutes before thrombus formation, thrombus weighed after 3 hours
Procedure: The protocols of the venous thrombosis and skin bleeding models in rabbits were as follows (Supplementary Figure 2). First, fasting rabbits were orally administered a solvent as a control (n = 10), a FXIa inhibitor (ONO-1600586, 5 mg/kg, n = 10; 15 mg/kg, n = 10; and 50 mg/kg, n = 11), or a FXa inhibitor ([…], n = 10 each) using a Nelaton catheter of 5 mm diameter (IZUMO Health Co, Ltd) 90 minutes before thrombus formation. […] Additional anesthesia with one-third amount of the above-mentioned mixture of drugs was administered 80 minutes after the first injection, and all surgical operations proceeded under aseptic conditions. Briefly, 90 minutes postadministration of the solvent, ONO-1600586, or rivaroxaban, venous thrombi were induced in rabbit jugular veins through endothelial denudation using a 3F balloon catheter (Edwards Lifesciences), according to a previous study, and the method was modified to induce luminal stenosis. A 2 mm polyethylene tube was placed outside the vessel. Both the jugular vein and polyethylene tube were ligated, and the tube was removed (Supplementary Figure 3). Next, 3 hours after thrombus formation and stenosis, the rabbits were infused with heparin (500 U/kg, i.v.) and then euthanized with an overdose of pentobarbital (60 mg/kg, i.v.). Subsequently, the animals were perfused with 50 mL phosphate-buffered saline (0.01 mol/L), and the jugular veins were sampled. The venous thrombi were immediately removed from the venous wall and weighed. […] Paraffin-embedded sections (4 μm thick) of the rabbit jugular vein thrombus were stained with HE and morphologically assessed. Consecutive sections of thrombi were immunohistochemically stained with antibodies against fibrin (Millipore) and GPIIb/IIIa (Affinity Biologicals Inc). Images were digitized using a photosensitive color CCD camera (BX51, OLYMPUS). Finally, the area of the red-stained erythrocytes in HE staining and the immunopositive areas for fibrin and GPIIb/IIIa were semiquantified using a color imaging morphometry system (WinROOF, Mitani).

jugular vein thrombus [2] = test: Stasis-induced thrombus formation in rabbit jugular veins; format: in vivo; conditions: rabbits, oral ONO-1600586 50 mg/kg or rivaroxaban 15 mg/kg 60 minutes before stasis, 6 hours stasis
Procedure: The protocols of venous thrombosis by stasis were as follows (Supplementary Figure 4). First, fasting rabbits were orally administered a solvent as a control (n = 8), a FXIa inhibitor (ONO-1600586, 50 mg/kg, n = 8), or a FXa inhibitor (rivaroxaban, 15 mg/kg, n = 8) using a Nelaton catheter of 5 mm diameter (IZUMO Health Co, Ltd) 60 minutes before thrombus formation. The process of thrombus formation was performed under general anesthesia through the subcutaneous injection of a mixture of medetomidine hydrochloride (0.08 mg/kg body weight), butorphanol tartrate (0.2 mg/kg), and midazolam (0.4 mg/kg). Briefly, 60 minutes postadministration of the solvent, ONO-1600586, or rivaroxaban, venous thrombi were induced in rabbit jugular veins by ligations and luminal stenosis. To induce luminal stenosis, a 1 mm polyethylene tube was placed outside the vessel. Both the jugular vein and polyethylene tube were ligated 4 cm upstream of the ligature, and the tube was removed (Supplementary Figure 5). Next, 6 hours after stasis in the jugular vein, the rabbits were infused with heparin (500 U/kg, i.v.). They were then euthanized with an overdose of pentobarbital (60 mg/kg, i.v.), and the jugular veins were sampled. In this model, the animals were not perfused with phosphate-buffered saline because the thrombi were fragile. The venous thrombi were immediately removed from the venous wall and weighed.

[3] = 75 minutes after oral administration, ONO-1600586 5, 15, 50 mg/kg, rivaroxaban 1.5, 5, 15 mg/kg
[4] = 4.5 hours after oral administration, ONO-1600586 50 mg/mL, rivaroxaban 15 mg/mL (so in the source)

SMILES: O=C(NC[C@H]1CN(c2ccc(N3CCOCC3=O)cc2)C(=O)O1)c1ccc(Cl)s1 [rivaroxaban]
- PT after oral administration (PT and aPTT; [3]): dose-dependently prolonged
- aPTT after oral administration (PT and aPTT; [3]): dose-dependently prolonged
- PT after oral administration (PT and aPTT; [4]): prolonged
- aPTT after oral administration (PT and aPTT; [4]): prolonged
- venous thrombus weight compared with control (jugular vein thrombus [1]; 1 mg/kg oral (so in the source)): tended to reduce
- venous thrombus weight compared with control (jugular vein thrombus [1]; 5 mg/kg oral): tended to reduce
- venous thrombus weight compared with control (jugular vein thrombus [1]; 15 mg/kg oral, 15 mg/kg): significantly reduced; also recorded: similarly reduced
- immunopositive area of fibrin in venous thrombus (jugular vein thrombus [1]; compared with control and ONO-1600586 groups): tended to be smaller
- areas of erythrocytes or immunopositive areas of fibrin or GPIIb/IIIa in venous thrombus (jugular vein thrombus [1]; histology of jugular vein thrombus, comparison among groups): did not differ
- stasis-induced venous thrombus weight compared with control (jugular vein thrombus [2]): significantly reduced; also recorded: similarly reduced

From PMC11999338, “Factor XI localization in human deep venous thrombus and function of activated factor XI on venous thrombus formation and hemostasis” (Research and Practice in Thrombosis and Haemostasis, 2025)
